Laboratory results reported in patent US12569468B2, “Use of palovarotene in treatment against HBV virus” (YANG SHENG TANG COMPANY, LTD., priority 2020, dated 2026).

Assays:
HBV [1] = assay: Therapeutic effect on HepG2-hNTCP 2B1 infected by HBV (drug from day 6 after infection); type: cell-based, hepatitis B virus; conditions: drug treatment from 6 days after HBV infection to day 12, Palovarotene at high concentrations (p<0.05), ETV 1 μM, vs blank group
Procedure: This experiment was carried out in a 24-well culture plate. […] About 1.5×10^5 HepG2-hNTCP 2B1 cells were plated in each well, and 500 μL of medium B was added to each well. After the cells adhered, medium A was used for replacement to perform the induction with Doxycycline during the whole experiment.
4 Days after the induction with Doxycycline, HBV infection was performed, and the amount of HBV in each well was 100 MOI. Before infection, HBV was diluted in medium C to obtain HBV solution, and the infection volume was 250 μL per well. During infection, the cell supernatant was first removed by suction, the HBV solution was added to the cells, and the cells were incubated for 24 hours, then the supernatant was collected as the sample of Day 0. Then the cells were washed three times with PBS, and fresh medium C was used for replacement. After that, the supernatant was collected every two days for detection, fresh medium C was used for replacement. On the 6th day, fresh drug-containing medium A was used for replacement to start drug treatment, then the supernatant was collected every two days for detection, and fresh drug-containing medium A was used for replacement, until the 12th day, all the supernatant and cells were collected for relevant detection. The detection items included HBsAg, HBeAg, HBV DNA, HBV cccDNA, and for the detection method, please refer to Example 1.

HBV [2] = assay: HBcAg immunofluorescence detection in infected HepG2-hNTCP 2B1; type: cell-based, hepatitis B virus; conditions: HepG2-hNTCP 2B1 cells after infection; 5 μM, day 6 to day 12
Procedure: Southern blot experiment was carried out on a 10 cm^2 culture plate. About 5×10^6 HepG2-hNTCP 2B1 cells were plated in each 10 cm^2 culture plate, and medium B was added. After the cells adhered, medium A was used for replacement to perform the induction with Doxycycline during the whole experiment. HBV infection was performed 4 days after the induction with Doxycycline, and the amount of HBV for infection was 1000 MOI. Before infection, HBV was diluted in medium C to obtain HBV solution, and the infection volume was 5 mL. During infection, the cell supernatant was first removed by suction, the HBV solution was added to the cells, the cells were incubated for 24 hours, then the supernatant was collected as the sample of Day 0. Then the cells were washed three times with PBS, and fresh medium A was used for replacement. After that, the supernatant was collected every two days for detection, fresh medium A was used for replacement. […]
The HBcAg immunofluorescence staining involved in this experiment was performed directly on adherent cells. […] Photographing: Photographing was performed with a high-content confocal microscope (PerkinElmer, Operetta CLS), and the mean fluorescence intensity of green fluorescence was analyzed.

HBV cccDNA = assay: Southern blot detection of HBV cccDNA in HepAD38; type: cell-based, hepatitis B virus; conditions: 5 μM, 8 days, inhibitory effect inferior to that of control group (ETV 5 μM)
Procedure: The Southern blot experiment was performed on 6 cm^2 culture plates. About 4.2×10^6 HepAD38 cells were plated in each 6 cm^2 culture plate, and medium G containing tetracycline hydrochloride (Tetracycline) was added. During the experiment, the medium G containing tetracycline hydrochloride was removed, and the drug-containing medium F was added at the same time for drug treatment, in which the treatment concentration of test drug Palovarotene was 5 μM, and the control group used Entecavir (ETV) at a concentration of 5 μM for treatment, and the treatment time was 8 days.
The specific Southern blot detection method was carried out with reference to Example 3.

HepaRG M14a = assay: Safety assessment, CCK-8 cell activity, HepaRG M14a; type: cell-based; conditions: 1 μM, 5 μM and 25 μM, 6 days treatment
Procedure: (§1) This experiment was carried out in a 96-well culture plate, with 8×10^4 corresponding cells plated in each well, and the corresponding medium volume was 100 μL, in which each drug to be tested in the HepG2-hNTCP 2B1, HepaRG M14A and primary hepatocyte experimental groups had three final concentrations of 1 μM, 5 μM and 25 μM, each drug to be tested in the HepAD38 cell experimental group had two final concentrations of 1 μM and 5 μM (the drug was diluted with the corresponding medium to the final concentrations, specifically please refer to Example 1, Example 2, Example 4 and Example 5), and to the blank group the same volume of culture medium without drug was added. After the cells had grown to a suitable density, drug was added to perform treatment for 6 days, during which, the medium was changed every two days with fresh drug-containing medium. After the drug treatment, 110 μL of medium containing Beyotime CCK-8 cell activity detection reagent (purchased from Beyotime, Art. No. C0038) (the volume ratio of medium to CCK-8 reagent was 100:10) was used for replacement, the cells were incubated at 37° C. for 30 min, and then all the supernatant was collected for detection of absorbance. The absorbance value was read on PHOMO microplate reader purchased from Zhengzhou Autobio.

[3] = system: human primary hepatocytes; assay: Safety assessment, CCK-8 cell activity, human primary hepatocytes; type: cell-based; conditions: 1 μM, 5 μM and 25 μM, 6 days treatment
Procedure: as §1

## CC1(C)CCC(C)(C)c2cc(Cn3cccn3)c(/C=C/c3ccc(C(=O)O)cc3)cc21 [Palovarotene]
HBV [1]
  HBeAg: significant inhibitory effect
  level of HBV DNA: significantly reduce
  level of HBV cccDNA: significantly reduce
HBV [2]
  positive rate of HBcAg (immunofluorescence): significantly reduce the positive rate
HBV cccDNA
  level of HBV cccDNA (Southern blot): significantly inhibit
HepaRG M14a
  CCK-8 absorbance value (cell activity) vs blank group: not significantly different
[3]
  CCK-8 absorbance value (cell activity) vs blank group: not significantly different
